In patent publication US20240307350A1, “5-METHOXY-N,N-DIMETHYLTRYPTAMINE (5-MEO-DMT) FOR TREATING DEPRESSION” (GH RESEARCH IRELAND LIMITED, priority 2019, published 2024):

Test system: patients with treatment-resistant major depressive disorder
Assay: Clinical trial in treatment-resistant major depressive disorder: intensity of the psychedelic effects (MEQ30, ASC, PPEQ)
Format: in vivo, human
Settings: for ASC Oceanic Boundlessness (0-2700) / MEQ30 Ineffability (0 to 5) / MEQ30 Mystical (0 to 5) / MEQ30 Positive Mood (0 to 5) / MEQ30 Total Score Average (0 to 5) / MEQ30 Transcendence Time/Space (0 to 5) / PPEQ Intensity (0-100) / PPEQ Loss of Control (0-100) / PPEQ Profoundness (0-100) / PPEQ Total Score (0-100) / PPEQ PPE achieved / MEQ30 PPE achieved / ASC PPE achieved: 12 mg inhaled; for PPEQ PPE achieved: PPEQ Total Score of at least 75; for MEQ30 PPE achieved: at least 60% of the maximum possible score in each of the four subscales; for ASC PPE achieved: at least 60% of the maximum possible score of Oceanic Boundlessness
Description: The occurrence of a “peak psychedelic experience” in a patient can be identified through achievement of at least 60% of the maximum possible score in each of the four subscales (mystical, positive mood, transcendence of time and space, and ineffability) of the 30-item revised Mystical Experience Questionnaire (MEQ30) (as described in Barrett F S, J Psychopharmacol. 2015; 29(11):1182-90; Score items shown in Example 4).
The occurrence of a “peak psychedelic experience” in a patient can also be identified through achievement of at least 60% of the maximum possible score of the Oceanic Boundlessness (OBN) dimension of the Altered States of Consciousness (ASC) questionnaire (as described in Roseman L et al., Front Pharmacol. 2018; 8:974).
The occurrence of a “peak psychedelic experience” in a patient can also be identified through achievement of a score of at least 75 in the Peak Psychedelic Experience Questionnaire (PPEQ) Total Score, which averages answers scored by the patient from 0 to 100 for the following three questions: 1. How intense was the experience; 2. To what extent did you lose control; 3. How profound (i.e. deep and significant) was the experience?
A clinical trial was performed in which 5-MeO-DMT free base (purity not less than 99%) was administered to patients with treatment-resistant major depressive disorder (TRD). The objectives of the study were to assess the safety and tolerability, the dose-related psychedelic effects and the effects on various measures of depression of single-day dosing of 5-MeO-DMT. The trial was reviewed and approved by the relevant national competent authority and local medical ethics committee. Patients recruited into the trial had to meet the Diagnostic and Statistical Manual of Mental Disorders-Fifth Edition (DSM-5) diagnostic criteria for single-episode or recurrent major depressive disorder and had to be treatment-resistant, both aspects as evaluated by a psychiatrist or registered psychologist. Patients who were using any psychoactive medication or substance (such as anti-depressive medication) had to discontinue such medication or substance and had to observe a wash-out period before the 5-MeO-DMT administration. On the administration day, a single dose of 12 mg 5-MeO-DMT was administered to the patients via a single inhalation as described in Example 1A. Patients were closely monitored for 3.5 hours after administration, with additional follow-up visits 1 day and 7 days after dosing. Various safety related measures (e.g., adverse event reporting, safety laboratory analyses, vital signs, electrocardiogram (ECG), Clinician Administered Dissociative States Scale (CADSS), Psychomotor Vigilance Test (PVT), Digit Symbol Substitution Test (DSST)), measures of the intensity of the psychedelic effects (e.g., Peak Psychedelic Experience Questionnaire (PPEQ), Altered States of Consciousness (ASC) Questionnaire, Mystical Experience Questionnaire (MEQ30), subjective description of the psychedelic experience), measures of depression severity (Montgomery-Åsberg Depression Rating Scale (MADRS), Patient's Global Impression of Severity scale (PGI-S), Patient's Global Impression of Improvement scale (PGI-I)), and additional psychological measures (e.g., Columbia-Suicide Severity Rating Scale (C-SSRS), Brief Psychiatric Rating Scale (BPRS)) were recorded at different time points. Psychological support via a psychologist and/or psychiatrist was available to the patients throughout the study, but no specific psychotherapy was applied, and no additional psychoactive medication was provided.
The score for each individual subscale is computed by calculating the average score (from the scale of 0 to 5) for the phenomena belonging to the subscale as listed below.
The MEQ30-total score is computed by taking the average response to all phenomena. […]

COc1ccc2[nH]cc(CCN(C)C)c2c1 [5-MeO-DMT, 5-methoxy-N,N-dimethyltryptamine]
ASC Oceanic Boundlessness (0-2700) (Patient 1): 1696
MEQ30 Ineffability (0 to 5) (Patient 1): 4.7
MEQ30 Mystical (0 to 5) (Patient 1): 3.5
MEQ30 Positive Mood (0 to 5) (Patient 1): 4.5
MEQ30 Total Score Average (0 to 5) (Patient 1): 3.8
MEQ30 Transcendence Time/Space (0 to 5) (Patient 1): 3.7
PPEQ Intensity (0-100) (Patient 1): 94
PPEQ Loss of Control (0-100) (Patient 1): 45
PPEQ Profoundness (0-100) (Patient 1): 87
PPEQ Total Score (0-100) (Patient 1): 75.3
PPEQ PPE achieved (Patient 1): Yes
MEQ30 PPE achieved (Patient 1): Yes
ASC PPE achieved (Patient 1): Yes
ASC Oceanic Boundlessness (0-2700) (Patient 2): 1297
MEQ30 Ineffability (0 to 5) (Patient 2): 3.3
MEQ30 Mystical (0 to 5) (Patient 2): 3.1
MEQ30 Positive Mood (0 to 5) (Patient 2): 4.0
MEQ30 Total Score Average (0 to 5) (Patient 2): 3.4
MEQ30 Transcendence Time/Space (0 to 5) (Patient 2): 3.5
PPEQ Intensity (0-100) (Patient 2): 100
PPEQ Loss of Control (0-100) (Patient 2): 58
PPEQ Profoundness (0-100) (Patient 2): 80
PPEQ Total Score (0-100) (Patient 2): 79.3
PPEQ PPE achieved (Patient 2): Yes
MEQ30 PPE achieved (Patient 2): Yes
ASC PPE achieved (Patient 2): No
duration of the psychedelic experience as judged by an external observer (patient 1, single dose of 12 mg via inhalation): 16 min
duration of the psychedelic experience as judged by an external observer (patient 2, single dose of 12 mg via inhalation): 40 min
first psychedelic symptoms after the inhalation (onset) (single dose of 12 mg via inhalation, both patients): within a few seconds
